ChEMBL document CHEMBL1155015, “Synthesis and cytotoxic activities of usnic acid derivatives” (Bioorg Med Chem, 2008)

Key:
L1210 [1] = assay: Cytotoxicity against mouse L1210 ATCC CCL 219 cells after 48 hrs by MTT assay; type: functional, cell-based; conditions: L1210, 48 h
CHO [2] = assay: Cytotoxicity against CHO cells after 48 hrs by MTT assay; type: cell-based; conditions: Cricetulus griseus
K562 = assay: Cytotoxicity against human K562 ATCC CCL 243 cells after 72 hrs by MTT assay; type: functional, cell-based; conditions: K562, 72 h
U-251 = assay: Cytotoxicity against human U251 RCB 0641 cells after 72 hrs by MTT assay; type: functional, cell-based; conditions: U-251, 72 h
MCF7 = assay: Cytotoxicity against human MCF7 ATCC HTB 22 cells after 72 hrs by MTT assay; type: functional, cell-based; conditions: MCF7, 72 h
CHO [3] = assay: Cytotoxicity against polyamine transport-deficient mutant CHO cells after 48 hrs by MTT assay; type: ADME, cell-based; conditions: Cricetulus griseus
L1210 [4] = assay: Induction of apoptosis in mouse L1210 ATCC CCL 219 cells assessed as fragmented cell nuclei at 4.5 uM after 24 hrs by Hoechst 33342 staining; type: functional
L1210 [5] = assay: Induction of apoptosis in mouse L1210 ATCC CCL 219 cells assessed as fragmented cell nuclei at 6 uM after 24 hrs by Hoechst 33342 staining; type: functional
L1210 [6] = assay: Induction of apoptosis in mouse L1210 ATCC CCL 219 cells assessed as fragmented cell nuclei at 3 uM after 24 hrs by Hoechst 33342 staining; type: functional
L1210 [7] = assay: Induction of apoptosis in mouse L1210 ATCC CCL 219 cells assessed as fragmented cell nuclei at 6 uM after 48 hrs by Hoechst 33342 staining; type: functional
L1210 [8] = assay: Induction of apoptosis in mouse L1210 ATCC CCL 219 cells assessed as increase in caspase 3 activity at 4.5 uM after 48 hrs relative to control; type: functional
L1210 [9] = assay: Induction of apoptosis in mouse L1210 ATCC CCL 219 cells assessed as fragmented cell nuclei at 3 uM after 48 hrs by Hoechst 33342 staining; type: functional
[10] = Cytotoxicity against mouse 3LL CRL 1642 cells after 48 hrs by MTT assay; type: functional, cell-based
L1210 [11] = assay: Induction of apoptosis in mouse L1210 ATCC CCL 219 cells assessed as increase in caspase 3 activity at 3 uM after 48 hrs relative to control; type: functional
L1210 [12] = assay: Induction of apoptosis in mouse L1210 ATCC CCL 219 cells assessed as increase in caspase 3 activity at 6 uM after 48 hrs relative to control; type: functional
L1210 [13] = assay: Induction of apoptosis in mouse L1210 ATCC CCL 219 cells assessed as fragmented cell nuclei at 4.5 uM after 48 hrs by Hoechst 33342 staining; type: functional
DU-145 = assay: Cytotoxicity against human DU145 ATCC HTB 81 cells after 72 hrs by MTT assay; type: functional, cell-based; conditions: DU-145, 72 h
L1210 [14] = assay: Induction of apoptosis in mouse L1210 ATCC CCL 219 cells assessed as fragmented cell nuclei at 35 uM after 24 hrs by Hoechst 33342 staining; type: functional
L1210 [15] = assay: Induction of apoptosis in mouse L1210 ATCC CCL 219 cells assessed as increase in caspase 3 activity at 26 uM after 48 hrs relative to control; type: functional
L1210 [16] = assay: Induction of apoptosis in mouse L1210 ATCC CCL 219 cells assessed as fragmented cell nuclei at 17 uM after 48 hrs by Hoechst 33342 staining; type: functional
L1210 [17] = assay: Induction of apoptosis in mouse L1210 ATCC CCL 219 cells assessed as fragmented cell nuclei at 26 uM after 24 hrs by Hoechst 33342 staining; type: functional
L1210 [18] = assay: Induction of apoptosis in mouse L1210 ATCC CCL 219 cells assessed as fragmented cell nuclei at 26 uM after 48 hrs by Hoechst 33342 staining; type: functional
L1210 [19] = assay: Induction of apoptosis in mouse L1210 ATCC CCL 219 cells assessed as increase in caspase 3 activity at 35 uM after 48 hrs relative to control; type: functional
L1210 [20] = assay: Induction of apoptosis in mouse L1210 ATCC CCL 219 cells assessed as increase in caspase 3 activity at 17 uM after 48 hrs relative to control; type: functional
L1210 [21] = assay: Induction of apoptosis in mouse L1210 ATCC CCL 219 cells assessed as fragmented cell nuclei at 35 uM after 48 hrs by Hoechst 33342 staining; type: functional
L1210 [22] = assay: Induction of apoptosis in mouse L1210 ATCC CCL 219 cells assessed as fragmented cell nuclei at 17 uM after 24 hrs by Hoechst 33342 staining; type: functional
L1210 [23] = assay: Induction of apoptosis in mouse L1210 ATCC CCL 219 cells assessed as fragmented cell nuclei at 1.7 uM after 24 hrs by Hoechst 33342 staining; type: functional
L1210 [24] = assay: Induction of apoptosis in mouse L1210 ATCC CCL 219 cells assessed as increase in caspase 3 activity at 1.7 uM after 48 hrs relative to control; type: functional
L1210 [25] = assay: Induction of apoptosis in mouse L1210 ATCC CCL 219 cells assessed as fragmented cell nuclei at 1.7 uM after 48 hrs by Hoechst 33342 staining; type: functional

SMILES: NCCCCCCCCN
- IC50 (L1210 [1]): > 100 µM
- IC50 (CHO [2]): > 100 µM

SMILES: CCOC(=O)[C@H](CC(C)C)N/C(C)=C1\C(=O)C=C2Oc3c(C(C)=O)c(O)c(C)c(O)c3[C@@]2(C)C1=O
- IC50 (K562): 60.7 µM
- IC50 (U-251): > 100 µM
- IC50 (MCF7): > 100 µM
- IC50 (L1210 [1]): 48.9 µM

SMILES: CCOC(=O)[C@H](Cc1ccccc1)N/C(C)=C1\C(=O)C=C2Oc3c(C(C)=O)c(O)c(C)c(O)c3[C@@]2(C)C1=O
- IC50 (K562): > 100 µM
- IC50 (U-251): > 100 µM
- IC50 (MCF7): > 100 µM
- IC50 (L1210 [1]): 74.4 µM

SMILES: CC(=O)c1c(O)c(C)c(O)c2c1OC1=CC(=O)/C(=C(/C)NCCCCN)C(=O)[C@@]12C
- IC50 (L1210 [1]): 12 µM
- IC50 (CHO [3]): 12 µM
- IC50 (CHO [2]): 10.7 µM

SMILES: CC(=O)c1c(O)c(C)c(O)c2c1OC1=CC(=O)/C(=C(/C)NCCCNCCCCNCCCN)C(=O)[C@@]12C
- IC50 (U-251): 4.4 µM
- IC50 (MCF7): 11.2 µM
- IC50 (L1210 [1]): 15.3 µM
- IC50 (CHO [3]): 59 µM
- IC50 (CHO [2]): 48 µM

SMILES: CC(=O)c1c(O)c(C)c(O)c2c1OC1=CC(=O)/C(=C(/C)NCCCCO)C(=O)[C@@]12C
- IC50 (L1210 [1]): 19.9 µM
- IC50 (CHO [2]): 19.5 µM

SMILES: CC(=O)c1c(O)c(C)c(O)c2c1OC1=CC(=O)/C(=C(/C)NCCCNCCCCN)C(=O)[C@@]12C
- IC50 (U-251): 12.5 µM
- IC50 (MCF7): 9.9 µM
- IC50 (L1210 [1]): 8.4 µM
- IC50 (CHO [3]): 28 µM
- IC50 (CHO [2]): 29.3 µM

SMILES: CC[C@H](C)[C@H](N/C(C)=C1\C(=O)C=C2Oc3c(C(C)=O)c(O)c(C)c(O)c3[C@@]2(C)C1=O)C(=O)O
- IC50 (K562): 56.7 µM
- IC50 (MCF7): > 100 µM
- IC50 (L1210 [1]): 17.4 µM

SMILES: CCCCCCCCCN/C(C)=C1\C(=O)C=C2Oc3c(C(C)=O)c(O)c(C)c(O)c3[C@@]2(C)C1=O
- IC50 (L1210 [1]): > 500 µM

SMILES: CC(=O)c1c(O)c(C)c(O)c2c1OC1=CC(=O)/C(=C(/C)NCCCCCCCCN)C(=O)[C@@]12C
- IC50 (K562): 7.2 µM
- Activity (L1210 [4]): 38%
- IC50 (U-251): 8.2 µM
- Activity (L1210 [5]): 35%
- Activity (L1210 [6]): 37%
- Activity (L1210 [7]): 48%
- IC50 (MCF7): 5.8 µM
- IC50 (L1210 [1]): 2.7 µM
- Activity (L1210 [8]): 1.7
- Activity (L1210 [9]): 37%
- IC50 [10]: 8.2 µM
- Activity (L1210 [11]): 1.4
- IC50 (CHO [3]): 5 µM
- Activity (L1210 [12]): 1.7
- Activity (L1210 [13]): 42%
- IC50 (DU-145): 14 µM
- IC50 (CHO [2]): 3.5 µM

SMILES: CC(=O)C1=C(O)C=C2Oc3c(C(C)=O)c(O)c(C)c(O)c3C2(C)C1=O (single isomer, unassigned) [(-)-USNIC ACID]
- IC50 (K562): 21.8 µM
- IC50 (U-251): 19.7 µM
- IC50 (MCF7): 51.7 µM
- IC50 (L1210 [1]): 17.4 µM
- IC50 [10]: 35.1 µM
- IC50 (DU-145): 45.9 µM

SMILES: CC(=O)C1=C(O)C=C2Oc3c(C(C)=O)c(O)c(C)c(O)c3[C@@]2(C)C1=O [(+)-USNIC ACID]
- IC50 (K562): 52.8 µM
- IC50 (U-251): 19.5 µM
- IC50 (MCF7): 105 µM
- Activity (L1210 [14]): 35%
- Activity (L1210 [15]): 7.4
- IC50 (L1210 [1]): 26.4 µM
- Activity (L1210 [16]): 33%
- IC50 [10]: 23 µM
- Activity (L1210 [17]): 32%
- IC50 (CHO [3]): 30 µM
- Activity (L1210 [18]): 38%
- Activity (L1210 [19]): 21.9
- IC50 (DU-145): 57.4 µM
- IC50 (CHO [2]): 31.3 µM
- Activity (L1210 [20]): 3.4
- Activity (L1210 [21]): 42%
- Activity (L1210 [22]): 30%

SMILES: COc1cc([C@@H]2c3cc4c(cc3[C@@H](O[C@@H]3O[C@@H]5CO[C@@H](C)O[C@H]5[C@H](O)[C@H]3O)[C@H]3COC(=O)[C@H]23)OCO4)cc(OC)c1O [ETOPOSIDE]
- IC50 (K562): 4.9 µM
- Activity (L1210 [23]): 47%
- IC50 (U-251): 0.5 µM
- IC50 (L1210 [1]): 0.5 µM
- IC50 [10]: 4 µM
- Activity (L1210 [24]): 19.5
- Activity (L1210 [25]): 53%
- IC50 (DU-145): 1.5 µM

SMILES: NCCCCN [PUTRESCINE]
- IC50 (L1210 [1]): > 100 µM
- IC50 (CHO [3]): > 100 µM
- IC50 (CHO [2]): > 100 µM

SMILES: NCCCCNCCCN [SPERMIDINE]
- IC50 (L1210 [1]): > 100 µM
- IC50 (CHO [3]): > 100 µM
- IC50 (CHO [2]): > 100 µM

SMILES: NCCCNCCCCNCCCN [SPERMINE]
- IC50 (L1210 [1]): 54.5 µM
- IC50 (CHO [3]): > 100 µM
- IC50 (CHO [2]): > 100 µM
